PMC9898036, “VIP152 is a selective CDK9 inhibitor with pre-clinical in vitro and in vivo efficacy in chronic lymphocytic leukemia” (Leukemia, 2022)

Experiments:
[1] = system: HG-3 and MEC-1 cell lines; assay: Western blot of treated CLL cell lines; format: cell-based, human
[2] = biological target: Adrenergic α1B (Rattus norvegicus, UniProt P15823); assay: Eurofins Diversity Panel; format: binding; conditions: Conc. 10 μM
[3] = biological target: Dopamine D3 (Homo sapiens, UniProt P35462); assay: Eurofins Diversity Panel; format: binding; conditions: hum, Conc. 10 μM
[4] = biological target: Dopamine D4.2 (Homo sapiens, UniProt P21917, DEL265-296); assay: Eurofins Diversity Panel; format: binding; conditions: hum, Conc. 10 μM
[5] = system: Imidazoline I2, Central; assay: Eurofins Diversity Panel; format: binding; conditions: rat
[6] = biological target: PFPK5(P.falciparum) (Plasmodium falciparum, UniProt P61075); assay: DiscoverX KINOMEscan kinase profiling: PFPK5(P.falciparum); format: binding; conditions: PFPK5(P.falciparum) (Entrez MAL13P1.279); 100 nM; read-out: Percent Control
[7] = biological target: PKNB(M.tuberculosis) (Mycobacterium tuberculosis, UniProt P9WI81); assay: DiscoverX KINOMEscan kinase profiling; format: binding; conditions: kinase PKNB(M.tuberculosis) (Entrez pknB); compound concentration 1000 nM; read-out: Percent Control
[8] = biological target: RET(V804M) (Homo sapiens, UniProt P07949, V804M); assay: KINOMEscan: RET(V804M); format: binding; conditions: 100 nM, read-out: Percent Control
[9] = biological target: S6K1 (Homo sapiens, UniProt P23443); assay: KINOMEscan: S6K1; format: binding; conditions: 100 nM, read-out: Percent Control
[10] = biological target: SLK (Homo sapiens, UniProt Q9H2G2); assay: KINOMEscan: SLK; format: binding; conditions: 100 nM, read-out: Percent Control
[11] = biological target: TAK1 (Homo sapiens, UniProt O43318); assay: KINOMEscan: TAK1; format: binding; conditions: 100 nM, read-out: Percent Control
[12] = biological target: TIE2 (Homo sapiens, UniProt Q02763); assay: KINOMEscan: TIE2; format: binding; conditions: 100 nM, read-out: Percent Control
[13] = biological target: TYK2(JH1domain-catalytic) (Homo sapiens, UniProt P29597); assay: KINOMEscan: TYK2(JH1domain-catalytic); format: binding; conditions: 100 nM, read-out: Percent Control
[14] = biological target: ULK2 (Homo sapiens, UniProt Q8IYT8); assay: KINOMEscan: ULK2; format: binding; conditions: 100 nM, read-out: Percent Control
[15] = biological target: WEE1 (Homo sapiens, UniProt P30291); assay: KINOMEscan: WEE1; format: binding; conditions: 100 nM, read-out: Percent Control
[16] = biological target: YANK1 (Homo sapiens, UniProt Q8WU08); assay: KINOMEscan: YANK1; format: binding; conditions: 100 nM, read-out: Percent Control
[17] = biological target: ACVR2B (Homo sapiens, UniProt Q13705); assay: KINOMEscan: ACVR2B; format: binding; conditions: 1000 nM, read-out: Percent Control
[18] = biological target: ALK(C1156Y) (Homo sapiens, UniProt Q9UM73, C1156Y); assay: KINOMEscan: ALK(C1156Y); format: binding; conditions: 1000 nM, read-out: Percent Control
[19] = biological target: BMPR1B (Homo sapiens, UniProt O00238); assay: KINOMEscan: BMPR1B; format: binding; conditions: 1000 nM, read-out: Percent Control
[20] = biological target: CDC2L5 (Homo sapiens, UniProt Q14004); assay: KINOMEscan: CDC2L5; format: binding; conditions: 1000 nM, read-out: Percent Control
[21] = biological target: DAPK3 (Homo sapiens, UniProt O43293); assay: KINOMEscan: DAPK3; format: binding; conditions: 1000 nM, read-out: Percent Control
[22] = biological target: EGFR(E746-A750del) (Homo sapiens, UniProt P00533, DEL746-750); assay: KINOMEscan: EGFR(E746-A750del); format: binding; conditions: 1000 nM, read-out: Percent Control
[23] = biological target: EGFR(T790M) (Homo sapiens, UniProt P00533, T790M); assay: KINOMEscan: EGFR(T790M); format: binding; conditions: 1000 nM, read-out: Percent Control
[24] = biological target: EPHA1 (Homo sapiens, UniProt P21709); assay: KINOMEscan: EPHA1; format: binding; conditions: 1000 nM, read-out: Percent Control
[25] = biological target: EPHA7 (Homo sapiens, UniProt Q15375); assay: KINOMEscan: EPHA7; format: binding; conditions: 1000 nM, read-out: Percent Control
[26] = biological target: FER (Homo sapiens, UniProt P16591); assay: KINOMEscan: FER; format: binding; conditions: 1000 nM, read-out: Percent Control
[27] = biological target: GCN2(Kin.Dom.2,S808G) (Homo sapiens, UniProt Q9P2K8, S808G); assay: KINOMEscan: GCN2(Kin.Dom.2,S808G); format: binding; conditions: 1000 nM, read-out: Percent Control
[28] = biological target: GRK4 (Homo sapiens, UniProt P32298); assay: KINOMEscan: GRK4; format: binding; conditions: 1000 nM, read-out: Percent Control
[29] = biological target: HIPK1 (Homo sapiens, UniProt Q86Z02); assay: KINOMEscan: HIPK1; format: binding; conditions: 1000 nM, read-out: Percent Control
[30] = biological target: HUNK (Homo sapiens, UniProt P57058); assay: KINOMEscan: HUNK; format: binding; conditions: 1000 nM, read-out: Percent Control
[31] = biological target: IKK-beta (Homo sapiens, UniProt O14920); assay: KINOMEscan: IKK-beta; format: binding; conditions: 1000 nM, read-out: Percent Control
[32] = biological target: JNK1 (Homo sapiens, UniProt P45983); assay: KINOMEscan: JNK1; format: binding; conditions: 1000 nM, read-out: Percent Control
[33] = biological target: KIT(D816H) (Homo sapiens, UniProt P10721, D816H); assay: KINOMEscan: KIT(D816H); format: binding; conditions: 1000 nM, read-out: Percent Control
[34] = biological target: MAK (Homo sapiens, UniProt P20794); assay: KINOMEscan: MAK; format: binding; conditions: 1000 nM, read-out: Percent Control
[35] = biological target: MAP3K4 (Homo sapiens, UniProt Q9Y6R4); assay: KINOMEscan: MAP3K4; format: binding; conditions: 1000 nM, read-out: Percent Control
[36] = biological target: MAP4K2 (Homo sapiens, UniProt Q12851); assay: KINOMEscan: MAP4K2; format: binding; conditions: 1000 nM, read-out: Percent Control
[37] = biological target: MET(Y1235D) (Homo sapiens, UniProt P08581, Y1235D); assay: KINOMEscan: MET(Y1235D); format: binding; conditions: 1000 nM, read-out: Percent Control
Sequence of MET(Y1235D) (P08581 25-1390 Y1235D): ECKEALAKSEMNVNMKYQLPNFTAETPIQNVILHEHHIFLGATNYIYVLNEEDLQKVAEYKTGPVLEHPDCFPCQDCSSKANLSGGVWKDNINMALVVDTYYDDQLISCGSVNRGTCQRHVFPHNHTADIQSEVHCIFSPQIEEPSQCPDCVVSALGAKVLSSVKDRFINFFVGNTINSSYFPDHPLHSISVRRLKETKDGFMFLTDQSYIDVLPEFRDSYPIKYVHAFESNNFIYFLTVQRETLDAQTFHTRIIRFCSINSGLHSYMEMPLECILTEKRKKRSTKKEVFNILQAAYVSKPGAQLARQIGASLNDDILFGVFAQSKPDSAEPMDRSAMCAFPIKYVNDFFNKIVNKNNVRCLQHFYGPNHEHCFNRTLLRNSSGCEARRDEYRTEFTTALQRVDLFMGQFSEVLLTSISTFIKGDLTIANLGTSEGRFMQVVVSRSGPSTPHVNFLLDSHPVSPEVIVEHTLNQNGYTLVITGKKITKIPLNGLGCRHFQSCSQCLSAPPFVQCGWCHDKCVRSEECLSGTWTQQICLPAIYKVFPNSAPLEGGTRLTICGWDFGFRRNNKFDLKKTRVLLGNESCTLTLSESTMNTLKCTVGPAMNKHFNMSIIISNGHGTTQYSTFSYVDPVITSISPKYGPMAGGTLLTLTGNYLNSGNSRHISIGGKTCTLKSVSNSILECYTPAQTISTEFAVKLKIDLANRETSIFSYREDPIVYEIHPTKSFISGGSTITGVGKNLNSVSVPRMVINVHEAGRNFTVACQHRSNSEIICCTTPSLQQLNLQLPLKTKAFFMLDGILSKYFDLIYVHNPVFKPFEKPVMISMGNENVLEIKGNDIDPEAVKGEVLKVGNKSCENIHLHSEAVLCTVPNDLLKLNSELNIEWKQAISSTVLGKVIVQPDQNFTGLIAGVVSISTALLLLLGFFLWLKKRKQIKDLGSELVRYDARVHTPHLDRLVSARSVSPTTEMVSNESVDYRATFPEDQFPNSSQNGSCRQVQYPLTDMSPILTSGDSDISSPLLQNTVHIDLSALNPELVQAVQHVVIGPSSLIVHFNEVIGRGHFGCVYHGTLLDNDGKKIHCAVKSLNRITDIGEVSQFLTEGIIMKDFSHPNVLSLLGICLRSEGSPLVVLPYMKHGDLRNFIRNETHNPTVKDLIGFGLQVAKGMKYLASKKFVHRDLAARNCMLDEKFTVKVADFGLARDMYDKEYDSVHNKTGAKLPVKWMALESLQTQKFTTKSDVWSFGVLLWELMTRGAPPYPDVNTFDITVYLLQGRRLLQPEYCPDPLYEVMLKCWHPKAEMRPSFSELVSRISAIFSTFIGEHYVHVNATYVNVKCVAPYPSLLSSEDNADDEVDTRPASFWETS

Sequence of MAP4K2 (Q12851 whole entry): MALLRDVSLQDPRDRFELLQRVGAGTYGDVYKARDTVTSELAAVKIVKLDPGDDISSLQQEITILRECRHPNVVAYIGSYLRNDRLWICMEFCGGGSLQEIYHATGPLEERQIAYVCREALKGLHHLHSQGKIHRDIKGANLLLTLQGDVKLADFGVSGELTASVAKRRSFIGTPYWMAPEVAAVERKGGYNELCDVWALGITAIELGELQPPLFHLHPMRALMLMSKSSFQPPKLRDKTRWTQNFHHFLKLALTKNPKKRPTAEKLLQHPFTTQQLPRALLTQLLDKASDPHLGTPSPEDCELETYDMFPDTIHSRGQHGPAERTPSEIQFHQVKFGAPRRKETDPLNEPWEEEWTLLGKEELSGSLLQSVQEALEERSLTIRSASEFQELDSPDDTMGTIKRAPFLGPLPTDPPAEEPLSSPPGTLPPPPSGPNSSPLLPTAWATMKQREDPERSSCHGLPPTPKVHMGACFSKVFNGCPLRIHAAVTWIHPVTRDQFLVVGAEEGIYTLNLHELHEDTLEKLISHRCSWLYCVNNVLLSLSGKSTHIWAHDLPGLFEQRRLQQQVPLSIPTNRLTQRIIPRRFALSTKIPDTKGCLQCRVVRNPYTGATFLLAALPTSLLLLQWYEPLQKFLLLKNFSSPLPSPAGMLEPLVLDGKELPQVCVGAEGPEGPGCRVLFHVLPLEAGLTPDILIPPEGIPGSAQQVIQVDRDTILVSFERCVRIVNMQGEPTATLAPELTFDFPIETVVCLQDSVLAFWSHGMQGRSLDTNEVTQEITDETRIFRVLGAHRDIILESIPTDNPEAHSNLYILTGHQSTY
Sequence of RET(V804M) (P07949 29-1114 V804M): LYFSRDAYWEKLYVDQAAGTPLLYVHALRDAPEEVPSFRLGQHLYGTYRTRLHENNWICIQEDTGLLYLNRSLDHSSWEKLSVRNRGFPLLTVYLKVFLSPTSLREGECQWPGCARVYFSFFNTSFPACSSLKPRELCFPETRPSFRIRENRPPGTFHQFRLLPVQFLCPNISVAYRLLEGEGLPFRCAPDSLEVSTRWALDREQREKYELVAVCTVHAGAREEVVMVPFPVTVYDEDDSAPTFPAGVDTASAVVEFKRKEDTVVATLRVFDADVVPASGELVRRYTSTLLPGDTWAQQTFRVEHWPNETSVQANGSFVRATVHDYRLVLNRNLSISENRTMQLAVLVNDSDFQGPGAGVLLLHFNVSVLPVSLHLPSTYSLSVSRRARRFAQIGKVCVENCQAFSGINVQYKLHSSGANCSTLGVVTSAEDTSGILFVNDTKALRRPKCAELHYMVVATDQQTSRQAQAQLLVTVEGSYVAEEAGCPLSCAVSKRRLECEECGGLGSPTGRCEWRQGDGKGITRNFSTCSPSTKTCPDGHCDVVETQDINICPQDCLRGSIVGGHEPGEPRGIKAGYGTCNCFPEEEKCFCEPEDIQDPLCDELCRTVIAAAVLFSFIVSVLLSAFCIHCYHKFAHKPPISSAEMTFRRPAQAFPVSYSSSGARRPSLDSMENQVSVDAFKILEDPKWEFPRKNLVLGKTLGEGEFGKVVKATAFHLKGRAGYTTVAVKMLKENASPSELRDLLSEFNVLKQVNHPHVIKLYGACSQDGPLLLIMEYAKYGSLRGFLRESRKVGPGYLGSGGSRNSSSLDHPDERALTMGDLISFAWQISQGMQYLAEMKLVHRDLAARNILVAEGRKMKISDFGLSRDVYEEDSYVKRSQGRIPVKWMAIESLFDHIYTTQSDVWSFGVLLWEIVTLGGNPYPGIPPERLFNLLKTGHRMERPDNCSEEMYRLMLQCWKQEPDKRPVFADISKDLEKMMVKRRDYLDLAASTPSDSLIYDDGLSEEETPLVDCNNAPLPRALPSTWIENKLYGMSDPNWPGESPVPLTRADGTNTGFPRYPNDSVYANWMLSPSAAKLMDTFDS
Sequence of Dopamine D3 (P35462 whole entry): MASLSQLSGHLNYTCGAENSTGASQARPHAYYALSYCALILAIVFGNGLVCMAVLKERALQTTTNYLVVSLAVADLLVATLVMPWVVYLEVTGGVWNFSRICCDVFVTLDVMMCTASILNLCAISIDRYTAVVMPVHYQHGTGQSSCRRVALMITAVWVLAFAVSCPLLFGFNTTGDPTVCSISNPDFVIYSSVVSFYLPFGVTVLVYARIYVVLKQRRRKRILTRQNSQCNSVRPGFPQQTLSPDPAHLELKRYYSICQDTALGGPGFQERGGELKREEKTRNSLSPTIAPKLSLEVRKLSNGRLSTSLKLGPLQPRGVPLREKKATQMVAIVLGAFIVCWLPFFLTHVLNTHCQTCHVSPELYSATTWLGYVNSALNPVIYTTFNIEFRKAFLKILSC
Sequence of KIT(D816H) (P10721 26-976 D816H): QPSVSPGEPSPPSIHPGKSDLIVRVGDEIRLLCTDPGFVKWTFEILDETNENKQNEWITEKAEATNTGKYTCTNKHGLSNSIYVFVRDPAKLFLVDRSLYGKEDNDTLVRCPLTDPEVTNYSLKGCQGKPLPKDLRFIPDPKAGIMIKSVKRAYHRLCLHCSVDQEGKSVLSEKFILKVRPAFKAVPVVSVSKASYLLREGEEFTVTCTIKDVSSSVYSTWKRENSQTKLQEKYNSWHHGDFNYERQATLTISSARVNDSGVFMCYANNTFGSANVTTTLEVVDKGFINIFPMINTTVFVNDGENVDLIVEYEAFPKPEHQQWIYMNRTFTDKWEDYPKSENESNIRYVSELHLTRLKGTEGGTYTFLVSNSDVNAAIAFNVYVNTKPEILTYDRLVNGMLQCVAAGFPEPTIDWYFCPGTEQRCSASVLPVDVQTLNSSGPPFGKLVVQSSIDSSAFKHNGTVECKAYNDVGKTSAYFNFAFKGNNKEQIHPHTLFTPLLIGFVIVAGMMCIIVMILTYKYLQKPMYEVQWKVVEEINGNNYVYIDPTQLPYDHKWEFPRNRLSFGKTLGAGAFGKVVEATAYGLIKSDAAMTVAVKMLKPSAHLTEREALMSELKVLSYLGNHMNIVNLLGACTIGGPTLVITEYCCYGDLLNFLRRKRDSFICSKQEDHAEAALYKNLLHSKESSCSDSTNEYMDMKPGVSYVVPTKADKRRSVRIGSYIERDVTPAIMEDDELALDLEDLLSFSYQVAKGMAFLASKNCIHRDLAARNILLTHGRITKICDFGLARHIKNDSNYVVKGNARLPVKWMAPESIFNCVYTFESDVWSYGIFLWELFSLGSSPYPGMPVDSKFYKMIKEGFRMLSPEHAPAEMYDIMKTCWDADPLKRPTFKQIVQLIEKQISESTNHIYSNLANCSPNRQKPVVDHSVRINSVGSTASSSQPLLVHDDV
Sequence of DAPK3 (O43293 whole entry): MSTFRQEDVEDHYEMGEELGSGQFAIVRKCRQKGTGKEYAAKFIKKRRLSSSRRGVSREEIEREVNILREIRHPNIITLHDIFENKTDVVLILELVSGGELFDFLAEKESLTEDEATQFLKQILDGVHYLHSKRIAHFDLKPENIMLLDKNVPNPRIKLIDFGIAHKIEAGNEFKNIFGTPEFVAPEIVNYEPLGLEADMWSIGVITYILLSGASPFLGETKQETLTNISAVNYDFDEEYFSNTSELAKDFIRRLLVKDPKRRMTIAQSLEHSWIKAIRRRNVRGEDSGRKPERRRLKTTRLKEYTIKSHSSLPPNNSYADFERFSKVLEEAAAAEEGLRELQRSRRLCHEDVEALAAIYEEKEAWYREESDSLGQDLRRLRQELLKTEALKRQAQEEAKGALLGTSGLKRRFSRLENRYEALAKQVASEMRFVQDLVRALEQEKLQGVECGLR

Structure (SMILES): COc1cc(F)ccc1-c1cc(Nc2cc(CS(C)(=N)=O)ccn2)ncc1F (centres unmarked) [VIP152]
- MCL1 protein levels ([1]; 0.1 µM, 8 h): decreased
- Phosphorylation of serine 5 (marker of CDK7 activity) ([1]; 0.1 µM, 8 h): not diminished
- glycogen synthase phosphorylation at serine 641 (marker of GSK3α/β activity) ([1]; 0.1 µM, 8 h): did not observe a decrease
- phospho-serine 2 (pS2) of RNA Polymerase II ([1]; 0.1 µM, 8 h): decrease
- MCL1 ([1]; 1 µM, across 24 h): decreased
- c-MYC ([1]; 1 µM, across 24 h): decreased
- pS2 ([1]; 1 µM, across 24 h): decreased
- pS5 ([1]; 1 µM, across 24 h): minimal change
- PARP cleavage (induction of apoptosis) ([1]; beginning at six hours): detect PARP cleavage
- inhibition at 10 µM [2]: 18%
- inhibition at 10 µM [3]: 7%
- inhibition at 10 µM [4]: 32%
- IC50 [5]: 1400 nM
- Ki [5]: 930 nM
- % Inh. ([5]; Conc. 10 μM): 82%
- remaining binding at 0.1 µM [6]: 100%
- remaining binding at 1 µM [7]: 100%
- remaining binding at 0.1 µM [8]: 100%
- remaining binding at 0.1 µM [9]: 96%
- remaining binding at 0.1 µM [10]: 91%
- remaining binding at 0.1 µM [11]: 97%
- remaining binding at 0.1 µM [12]: 100%
- remaining binding at 0.1 µM [13]: 100%
- remaining binding at 0.1 µM [14]: 100%
- remaining binding at 0.1 µM [15]: 98%
- remaining binding at 0.1 µM [16]: 100%
- remaining binding at 1 µM [17]: 65%
- remaining binding at 1 µM [18]: 71%
- remaining binding at 1 µM [19]: 46%
- remaining binding at 1 µM [20]: 13%
- remaining binding at 1 µM [21]: 91%
- remaining binding at 1 µM [22]: 76%
- remaining binding at 1 µM [23]: 94%
- remaining binding at 1 µM [24]: 78%
- remaining binding at 1 µM [25]: 100%
- remaining binding at 1 µM [26]: 97%
- remaining binding at 1 µM [27]: 100%
- remaining binding at 1 µM [28]: 26%
- remaining binding at 1 µM [29]: 54%
- remaining binding at 1 µM [30]: 100%
- remaining binding at 1 µM [31]: 100%
- remaining binding at 1 µM [32]: 82%
- remaining binding at 1 µM [33]: 59%
- remaining binding at 1 µM [34]: 84%
- remaining binding at 1 µM [35]: 82%
- remaining binding at 1 µM [36]: 26%
- remaining binding at 1 µM [37]: 19%
